# Results reported in the supplement of paper PMC10307832.
# Experiments:
# Assay in all cases: relative viability (nuclei count vs DMSO), 5 days (fraction); higher = more cells survive
# [1] = compound: COc1cc2nccc(Oc3ccc(NC(=O)C4(C(=O)Nc5ccc(F)cc5)CC4)cc3)c2cc1OC [Cabozantinib] + Cc1nc(NC(=O)N2CCC[C@H]2C(N)=O)sc1-c1ccnc(C(C)(C)C(F)(F)F)c1 [Alpelisib] (partner 2 µM)
# Outline: (§1)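 Relative viability was taken as the ratio of nuclei in treated wells to nuclei in vehicle wells. Lung cancer cell lines in 1536-well plates received compounds by pin tool one day after seeding, either one drug alone or a fixed anchor-drug dose plus five library-drug doses (not always all listed) in √10 steps. Nuclei were counted on 4× images after 5 days of treatment, and values are medians of duplicate plates.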
# [2] = compound: COc1cc2nccc(Oc3ccc(NC(=O)C4(C(=O)Nc5ccc(F)cc5)CC4)cc3)c2cc1OC [Cabozantinib] + C[C@@H](Oc1cc(-c2cnn(C3CCNCC3)c2)cnc1N)c1c(Cl)ccc(F)c1Cl [Crizotinib] (partner 1 µM)
# Outline: as §1
# [3] = compound: O[C@@H](COc1cccc2ncccc12)CN1CCN([C@@H]2c3ccccc3[C@@H]3[C@H](c4ccccc42)C3(F)F)CC1 [Zosuquidar] + Cc1nc(NC(=O)N2CCC[C@H]2C(N)=O)sc1-c1ccnc(C(C)(C)C(F)(F)F)c1 [Alpelisib] (partner 2 µM)
# Outline: as §1
# [4] = compound: C1=CC(=CC=C1NC(=S)NNC2=C(C=C(C=C2[N+](=O)[O-])C(F)(F)F)[N+](=O)[O-])F [Kobe2602] + Cc1nc(NC(=O)N2CCC[C@H]2C(N)=O)sc1-c1ccnc(C(C)(C)C(F)(F)F)c1 [Alpelisib] (partner 2 µM)
# Outline: as §1
Cell Line,relative viability ([1]; first compound 0.02 µM),relative viability ([1]; first compound 0.06325 µM),relative viability ([1]; first compound 0.2 µM),relative viability ([1]; first compound 0.6325 µM),relative viability ([1]; first compound 2 µM),relative viability ([2]; first compound 0.02 µM),relative viability ([2]; first compound 0.06325 µM),relative viability ([2]; first compound 0.2 µM),relative viability ([2]; first compound 0.6325 µM),relative viability ([2]; first compound 2 µM),relative viability ([3]; first compound 0.01 µM),relative viability ([3]; first compound 0.03162 µM),relative viability ([3]; first compound 0.1 µM),relative viability ([3]; first compound 0.3162 µM),relative viability ([3]; first compound 1 µM),relative viability ([4]; first compound 0.2 µM),relative viability ([4]; first compound 0.6325 µM),relative viability ([4]; first compound 2 µM),relative viability ([4]; first compound 6.325 µM),relative viability ([4]; first compound 20 µM)
201T,1.03,1.05,0.981,0.99,0.958,1.04,1.02,0.988,0.956,0.976,0.891,0.965,0.896,1.01,1.06,1.09,1.01,0.968,1.11,1.09
A549,0.877,0.884,0.833,0.809,0.794,0.812,0.853,0.787,0.79,0.729,0.688,0.745,0.678,1.03,0.877,0.716,0.905,0.74,0.846,0.789
A-427,1.08,1.12,1.12,1.05,1.01,0.836,0.968,0.887,0.789,0.858,1.08,1.01,0.902,1.07,1.04,1.11,1.12,1.06,1.05,1.1
ABC-1,0.865,1.16,1.01,1.01,0.995,1.23,1.08,1.19,0.952,1.01,0.949,1.07,1.06,0.994,1.16,0.785,1.06,1.13,1.11,1.08
BEN,0.992,1.11,1.01,1.06,0.776,1.12,1,0.868,0.895,0.767,1.07,0.968,0.815,1,1.21,1.07,1.12,0.947,0.883,1.03
CAL-12T,1.23,1.27,1.19,1.16,1.18,0.724,0.753,0.634,0.611,0.429,1.17,1.13,1.16,1.41,1.13,0.92,1.39,0.67,0.981,1.19
COR-L23,0.717,0.883,0.855,0.699,0.59,0.73,0.791,0.716,0.621,0.544,0.88,0.783,0.789,0.902,0.723,0.752,0.827,0.809,0.885,0.83
COR-L 105,0.898,1.08,,0.945,0.859,0.653,1.03,,0.659,0.561,1.07,0.852,1.11,1.07,1.12,0.771,1.08,0.78,0.973,0.938
Calu-6,1.02,1.09,1.05,1.04,0.906,0.788,0.925,0.742,0.75,0.773,0.938,0.972,1.01,1.12,0.879,0.883,1.04,0.96,1,0.987
ChaGo-K-1,,,,,,1.24,1.3,1.18,1.13,1.09,,,,,,,,,,
EBC-1,0.718,0.931,0.208,0.185,0.22,0.194,0.173,0.182,0.198,0.213,0.83,0.842,0.794,1.09,0.779,0.876,0.963,0.958,0.839,0.894
EKVX,0.788,0.898,0.695,0.886,0.951,1.25,1.07,0.856,0.907,1.03,0.887,0.846,0.634,0.781,0.94,0.886,0.852,0.826,0.913,0.925
EMC-BAC-2,0.815,0.804,0.744,0.739,0.737,0.841,0.779,0.781,0.817,0.827,0.715,0.793,0.677,0.82,0.761,0.745,0.827,0.733,0.817,0.738
EPLC-272H,1.02,0.944,0.727,0.949,0.847,0.893,0.946,0.783,0.835,0.771,0.946,0.999,0.801,0.936,0.805,0.883,1.08,0.908,0.885,0.925
H3255,0.675,0.635,,0.779,0.644,0.922,0.927,,0.974,0.931,0.712,0.769,0.492,0.797,0.689,0.655,0.679,0.662,0.63,0.741
HARA,0.878,1.05,0.639,0.788,0.84,1.22,1.17,1.09,0.957,1.09,0.784,0.822,0.765,0.825,0.761,0.934,0.943,0.797,0.752,0.791
HCC-15,0.881,0.933,0.925,0.905,0.761,0.877,0.956,0.828,0.873,0.811,0.922,0.88,0.869,0.932,0.869,0.797,0.938,0.875,0.849,0.885
